Data: article PMC12040169 (PLOS Biology, 2025)

Assay: in vitro
Conditions: human, hela cells

Compound | viability at 28.5 h, 10 µM
COCCn1cc(C(=O)N2CCCC(CN(C)C)C2)c2ccccc21 (stereo not shown) [CBK281431] | 91.5%

Same assay, conditions: human, hela cells, % viability

Compound | viability at 28.5 h, 10 µM
CCN(CC)CCn1c(=N)n(CC(=O)c2cccs2)c2ccccc21 [CBK278240B] | 85.1%
O=C(NCCN1CCNCC1)c1ccccn1 [CBK278241C] | 108%
CC(=O)c1c(-c2cccc3ccccc23)nc2n(CCN3CCCCC3)c3ccccc3n12 [CBK278243C] | 103%
N=c1n(CCN2CCCCC2)c2ccccc2n1CC(=O)c1cccs1 [CBK278244B] | 85%
OC(COCc1ccc2c(c1)OCO2)CN1CCN(Cc2ccccc2)CC1 (stereo not shown) [CBK278249C] | 93.5%
CC(C)(C)c1cn2c3ccccc3nc2n1CCN1CCOCC1 [CBK278252C] | 103%
CN1CCN(CC(O)COCc2ccc3c(c2)OCO3)CC1 (stereo not shown) [CBK278260C] | 81.4%
OCCN1CCN(CC(O)COCc2ccccc2)CC1 (stereo not shown) [CBK278262C] | 90.6%
CC(C)(C)C1CCC(OCC(O)CN2CCN(CCO)CC2)CC1 (stereo not shown) [CBK278263C] | 89.8%
CC(=C\C(=O)O)/C(=C/c1ccncc1)C(=O)O [CBK278265N] | 116%
OCCNCCNCc1ccc(-c2ccccc2)cc1 [CBK278269C] | 115%
CN(C)CCCn1c(NCc2ccc3c(c2)OCO3)nc2ccccc21 [CBK278273C] | 94.4%
Cc1nnc(N/N=C/c2cn(Cc3c(F)cccc3Cl)c3ccccc23)n1N [CBK278277C] | 86.8%
CCOC(=O)C1CCCN1Cc1ccccc1 (stereo not shown) [CBK278278G] | 95%
CCc1nnc(N/N=C/c2cc(Cl)c(OCc3ccccc3F)c(OC)c2)n1N [CBK278282C] | 85.4%
CN(C)CCCNC(=O)c1ccc(/C=N/O)[n+](C)c1 [CBK278284I] | 88.8%
NCCc1nc2ccccc2[nH]1 [CBK278287C] | 91.8%
Cc1ccccc1CNCCNCCO [CBK278293C] | 98%
c1ccc2c(c1)N1CCCN=C1N2CCN1CCOCC1 [CBK278300C] | 108%
N=C(N)SCCCCSC(=N)N [CBK278304B] | 102%
O=C(O)C(O)C(O)C(O)CO (stereo not shown) [CBK278306G] | 89.3%
O=S(=O)(O)CCCSCCCS(=O)(=O)O [CBK278307N] | 95.4%
COc1ccccc1CNCCCN1CCOCC1 [CBK278310C] | 96.2%
CC1=NN(c2ccc(S(=O)(=O)O)cc2)C(=O)/C1=C/C=C/c1c(C)nn(-c2ccc(S(=O)(=O)O)cc2)c1O [CBK278317K] | 94.6%

Compound | viability at 28.5 h, 10 µM
Cc1ccccc1OCC(O)CN1CCN(CCN2C(=O)c3cccc4cccc(c34)C2=O)CC1 (stereo not shown) [CBK278321C] | 68.9%
CC(C)(C)OC(=O)NCC1CCC(C(=O)O)CC1 (stereo not shown) [CBK278598] | 94.5%
CCOc1ncccc1C(=O)NCc1ccc(NC(N)=O)cc1 [CBK279382] | 111%
Cc1oc2[nH]c(CN(C)CCOc3ccc(Cl)cc3)nc(=N)c2c1C(=O)O [CBK279463] | 102%
O=C(O)CCCC(=O)Nc1ccccc1-c1nc2ccccc2[nH]c1=O [CBK280451] | 85.9%
Cc1nccn1CCCC(=O)NCC1(c2ccccc2F)CCCC1 [CBK281370] | 109%
Cc1ccc(C(C)(C)C(=O)N2CC(C(=O)N3CCN(C)CC3)C2)cc1 [CBK281371] | 99.4%
CC(=O)N1CC(C(=O)Nc2nc3c(C)cc(C)cc3s2)C1 [CBK281372] | 95.9%
CC(NC(=O)c1ccccc1Cn1cccn1)c1ccccn1 (stereo not shown) [CBK281374] | 86.3%
CNC(=O)C1(C)CCCN1C(=O)c1cc2cc(C)ccc2n1C (stereo not shown) [CBK281375] | 86.1%
CCn1cncc1C(=O)Nc1ccc(-n2ccnc2C(C)C)cc1 [CBK281379] | 95.8%
CC(C)c1nccn1-c1ccc(NC(=O)Cn2ccnc2)cc1 [CBK281381] | 88.9%
O=C(CCCn1ccnc1)Nc1ccc(N2CCCCC2)c(F)c1 [CBK281385] | 81.1%
O=C(Nc1ccc(N2CCCCC2)c(F)c1)C1CC(=O)N(C2CC2)C1 (stereo not shown) [CBK281387] | 108%
Cc1cc(C(=O)NCCn2nc(C)c(C)c2C)c2cccc(C)c2n1 [CBK281388] | 110%
Cc1ccc(C(=O)Nc2ccc(N3CCCCC3)c(F)c2)c(=O)n1C [CBK281390] | 89.5%
Cc1cc(CNC(=O)c2cc3ccc(Cl)cc3[nH]2)[nH]n1 [CBK281391] | 87.8%
Cc1nn(C)c(C)c1C(C)NS(=O)(=O)Cc1cccc(F)c1 (stereo not shown) [CBK281396] | 107%
Cc1ccc2nc(C(=O)NCCSc3nccn3C)cn2c1 [CBK281397] | 93.4%
Cc1ccc(S(=O)(=O)NCCc2nc3ccccc3n2C)s1 [CBK281398] | 81.5%
CCn1cnc2cc(NC(=O)CC(C)n3nc(C)cc3C)ccc21 (stereo not shown) [CBK281401] | 94.8%
Cc1nc(-c2ccc(NC(=O)Cc3sc(C)nc3C)cc2)cs1 [CBK281404] | 96%
Cc1noc(C)c1CC(=O)Nc1cccc(CN2CCCCCC2)c1 [CBK281407] | 105%
O=C(Cn1ccnc1)Nc1nc(-c2ccccc2F)cs1 [CBK281409] | 104%

Compound | viability at 28.5 h, 10 µM
Cc1ncncc1C(=O)NCC1(c2ccccc2F)CCCC1 [CBK281411] | 105%
CC1(CNS(=O)(=O)Cc2cc(F)cc(F)c2)COC1 [CBK281413] | 91.3%
CCc1nc(CNC(=O)c2cc3cc(F)ccc3n2C)no1 [CBK281414] | 93.6%
CC(C)Oc1cccc(CNC(=O)c2ccc(C(C)(C)C)[nH]c2=O)c1 [CBK281415] | 92.2%
Cc1ccn2cc(C(=O)NCCSc3nccn3C)nc2c1 [CBK281417] | 104%
Cc1c(S(=O)(=O)Nc2ccc(-c3ccc(F)cc3)cc2)cnn1C [CBK281418] | 114%
Cc1cc(=O)n(CC(=O)NC(C)Cc2ccccn2)c2ccccc12 (stereo not shown) [CBK281420] | 90.3%
CC(Cc1ccccn1)NC(=O)c1cc(-c2ccccc2F)no1 (stereo not shown) [CBK281421] | 91.1%
COc1ccc2c(C)c(C(=O)NC(C)Cc3ccccn3)oc2c1 (stereo not shown) [CBK281424] | 89.1%
Cc1nc(C)c(CC(=O)Nc2cccc(CN3CCCC3)c2)s1 [CBK281426] | 105%
Cc1ccc(F)c(S(=O)(=O)NC(C)Cc2ccccn2)c1 (stereo not shown) [CBK281427] | 90.5%
Cc1nn(CCNC(=O)C2CC3C=CC2C32CC2)c(C)c1Cl (stereo not shown) [CBK281429] | 90.8%
Cn1nc(C(=O)Nc2ccccc2Oc2ccc(F)cc2)ccc1=O [CBK281430] | 91%
CC(NC(=O)CC(C)n1cccn1)c1cc2cc(Cl)ccc2o1 (stereo not shown) [CBK281432] | 92.6%
CCc1cc(C(=O)NC(c2ccc(F)cc2)c2nccn2C)n(C)n1 (stereo not shown) [CBK281434] | 108%
COC(=O)C1(Cc2ccccc2-c2ccncc2)CCNC1 (stereo not shown) [CBK281435] | 85.2%
Cc1cn(CC(=O)NCC2(c3cccc(F)c3)CCCC2)nn1 [CBK281436] | 89.7%
CC(C(=O)NC(c1ccncc1)c1cccs1)n1ccnc1 (stereo not shown) [CBK281438] | 90.9%
Cc1nccn1CCC(=O)NC(c1ccncc1)c1cccs1 (stereo not shown) [CBK281440] | 90.6%
Cn1ccnc1C(NC(=O)C1C2CCCCC21)c1ccc(F)cc1 (stereo not shown) [CBK281441] | 98.7%
Cc1nonc1CN(C)C(=O)c1ccc2c(c1)c(C)c(C)n2C [CBK281442] | 56.1%
CCCn1nc(C)c(-c2cncn2CCn2nc(C)c(C)c2C)c1C [CBK281444] | 83.5%
Cc1noc(C)c1CC(=O)NC(C)c1cc2cc(Cl)ccc2o1 (stereo not shown) [CBK281445] | 90.1%
Cc1cnn(CC(=O)NC(C)c2cc3cc(Cl)ccc3o2)c1 (stereo not shown) [CBK281447] | 90.2%

Compound | viability at 28.5 h, 10 µM
Cc1nn(C)c(C)c1CN(C(=O)c1ccc(C)n(C)c1=O)C1CC1 [CBK281450] | 105%
Cn1c(=O)cc(Oc2ccc(F)cc2)c2ccccc21 [CBK281451] | 88.1%
OC(CN1CCC(Oc2cccc(F)c2)CC1)c1cccs1 (stereo not shown) [CBK281453] | 88.8%
CC(CC(=O)NC(c1ccc(F)cc1)c1nccn1C)n1cccn1 (stereo not shown) [CBK281454] | 93.7%
O=C(Cn1ccnc1)Nc1ccccc1Oc1ccc(F)cc1 [CBK281455] | 90.1%
Cc1cccc(OCCn2cncc2-c2cn(C)nc2C)c1C [CBK281458] | 112%
CCC(CN1CCCC1)n1cncc1-c1cn(C)nc1C (stereo not shown) [CBK281459] | 102%
CCC(CN1CCCCC1)n1cncc1-c1cn(C)nc1C (stereo not shown) [CBK281460] | 96.9%
O=C(Nc1ccc(N2CCCC2)c(F)c1)C1CC(=O)N(C2CC2)C1 (stereo not shown) [CBK281461] | 100%
O=C(Cc1ccc2c(c1)CCCO2)NCc1ccccc1-n1ccnc1 [CBK281463] | 86.6%
c1ccc(-c2n[nH]cc2-c2cncn2CCCN2CCCCC2)cc1 [CBK281464] | 90.4%
CC(C)(CO)CCCn1cncc1-c1cnn(-c2ccc(F)cc2)c1 [CBK281466] | 117%
Cc1cc(C)n(C(C)CC(=O)NC(C)c2nc3ccccc3s2)n1 (stereo not shown) [CBK281469] | 93.2%
CC(=O)N1CCc2cc(NC(=O)c3cc4cc(C)ccc4o3)ccc21 [CBK281470] | 86.2%
CC(=O)N1CCc2cc(NC(=O)Cn3ccnc3C(C)C)ccc21 [CBK281471] | 90.1%
Cc1nccn1CCC(=O)Nc1ccccc1Oc1ccc(F)cc1 [CBK281473] | 91.9%
O=C(CCn1cccn1)NCC1CCCOC1 (stereo not shown) [CBK281474] | 110%
CCCn1nc(C)c(-c2cncn2CCc2c(C)nn(C)c2C)c1C [CBK281475] | 91.5%
Cc1nc(C)c(CC(=O)N(C)CC2OCCc3ccccc32)s1 (stereo not shown) [CBK281478] | 90.9%
O=C(Cn1ccnc1)NC(c1ccc(Cl)cc1)c1cccnc1 (stereo not shown) [CBK281481] | 99.2%
CCc1cc(C(=O)NC(c2ccncc2)c2cccs2)n(C)n1 (stereo not shown) [CBK281482] | 109%
